test system: IFNγ-induced NO production in RAW264.7; assay: Suppression of IFNγ-induced NO production in RAW264.7 mouse macrophages (Griess reagent, normalized to WST-1 cell viability); type: cell-based; conditions: RAW264.7 cells, 2 h pre-treatment with drug (0-200 nM), then IFNγ for 24 h
Experimental: Nitric Oxide Production and Cell Viability. […] On the next day, cells were pre-treated with DMSO or drug (0-200 nM dose range) for 2 hours, and then treated with recombinant mouse IFNγ (R&D Systems) for 24 hours. Nitric Oxide concentration in media was determined using the Griess reagent system (Promega). Cell viability was determined using WST-1 reagent (Roche). IC50 values were determined based on the suppression of IFNγ induced Nitric Oxide production normalized to cell viability.

| SMILES | IC50 [nM] |
| --- | --- |
| COC(=O)[C@]12CCC(C)(C)C[C@H]1[C@H]1C(=O)C[C@@H]3[C@@]4(C)C=C(C#N)C(=O)[C@@H](C)[C@@H]4CC[C@@]3(C)[C@]1(C)CC2 [TX63749] | 3 |
| C[C@@H]1C(=O)C(C#N)=C[C@]2(C)C3=CC(=O)[C@@H]4[C@@H]5CC(C)(C)CC[C@]5(C(=O)n5ccnc5)CC[C@@]4(C)[C@]3(C)CC[C@@H]12 [TX63522] | 0.4 |
| C[C@@H]1C(=O)C(C#N)=C[C@]2(C)C3=CC(=O)[C@@H]4[C@@H]5CC(C)(C)CC[C@]5(C(=O)NCC(F)(F)F)CC[C@@]4(C)[C@]3(C)CC[C@@H]12 [TX63523] | 1 |
| Cc1nnc([C@]23CCC(C)(C)C[C@H]2[C@H]2C(=O)C=C4[C@@]5(C)C=C(C#N)C(=O)[C@@H](C)[C@@H]5CC[C@@]4(C)[C@]2(C)CC3)o1 [TX63616] | 0.7 |
| COC(=O)[C@]12CCC(C)(C)C[C@H]1[C@@]1(O)C(=O)C=C3[C@@]4(C)C=C(C#N)C(=O)[C@@H](C)[C@@H]4CC[C@@]3(C)[C@]1(C)CC2 [TX63870] | 1.1 |
| CCCCCCC(=O)N[C@]12CCC(C)(C)C[C@H]1[C@H]1C(=O)C=C3[C@@]4(C)C=C(C#N)C(=O)[C@@H](C)[C@@H]4CC[C@@]3(C)[C@]1(C)CC2 [TX63865] | 9.4 |
| C[C@@H]1C(=O)C(C#N)=C[C@]2(C)[C@H]3CC(=O)[C@@H]4[C@@H]5CC(C)(C)CC[C@]5(C(=O)NO)CC[C@@]4(C)[C@]3(C)CC[C@@H]12 [TX63814] | 19 |
| C[C@@H]1C(=O)C(C#N)=C[C@]2(C)C3=CC(=O)[C@@H]4[C@@H]5CC(C)(C)CC[C@]5(C(=O)N5CCOCC5)CC[C@@]4(C)[C@]3(C)CC[C@@H]12 [TX63881] | 0.9 |
| CCC(=O)N[C@]12CCC(C)(C)C[C@H]1[C@H]1C(=O)C=C3[C@@]4(C)C=C(C#N)C(=O)[C@@H](C)[C@@H]4CC[C@@]3(C)[C@]1(C)CC2 [TX63864] | 1.9 |
| CC(=O)NNC(=O)CC[C@]12CCC(C)(C)C[C@H]1[C@H]1C(=O)C=C3[C@@]4(C)C=C(C#N)C(=O)[C@@H](C)[C@@H]4CC[C@@]3(C)[C@]1(C)CC2 [TX63915] | 4 |
| CC(=O)O[C@]12CCC(C)(C)C[C@H]1[C@H]1C(=O)C=C3[C@@]4(C)C=C(C#N)C(=O)[C@@H](C)[C@@H]4CC[C@@]3(C)[C@]1(C)CC2 [TX63928] | 0.6 |
| CCCCCCOC(=O)[C@]12CCC(C)(C)C[C@H]1[C@H]1C(=O)C=C3[C@@]4(C)C=C(C#N)C(=O)[C@@H](C)[C@@H]4CC[C@@]3(C)[C@]1(C)CC2 [TX63821] | 53 |
| C[C@@H]1C(=O)C(C#N)=C[C@]2(C)C3=CC(=O)[C@@H]4[C@@H]5CC(C)(C)CC[C@@H]5CC[C@@]4(C)[C@]3(C)CC[C@@H]12 [TX63869] | 3.8 |
| C[C@@H]1C(=O)C(C#N)=C[C@]2(C)C3=C[C@@H](O)[C@]4(O)[C@@H]5CC(C)(C)CC[C@]5(CO)CC[C@@]4(C)[C@]3(C)CC[C@@H]12 [TX63904] | 10.4 |
| C[C@@H]1C(=O)C(C#N)=C[C@]2(C)C3=CC(=O)[C@@H]4[C@@H]5CC(C)(C)CC[C@]5(c5nnco5)CC[C@@]4(C)[C@]3(C)CC[C@@H]12 [TX63789] | 0.6 |
| CC(C)OC(=O)N[C@]12CCC(C)(C)C[C@H]1[C@H]1C(=O)C=C3[C@@]4(C)C=C(C#N)C(=O)[C@@H](C)[C@@H]4CC[C@@]3(C)[C@]1(C)CC2 [TX63819] | 2.7 |
| COC(=O)[C@]12CCC(C)(C)C[C@H]1[C@H]1C(=O)C=C3[C@@]4(C)CC(C#N)=C(O)[C@@H](C)[C@@H]4CC[C@@]3(C)[C@]1(C)CC2 [TX63778] | 50 |
| C[C@@H]1C(=O)C(C#N)=C[C@]2(C)C3=CC(=O)[C@@H]4[C@@H]5CC(C)(C)CC[C@]5(NS(C)(=O)=O)CC[C@@]4(C)[C@]3(C)CC[C@@H]12 [TX63621] | 0.8 |
| C[C@@H]1C(=O)C(C#N)=C[C@]2(C)C3=CC(=O)[C@@H]4[C@@H]5CC(C)(C)CC[C@]5(CCC(=O)NC5COC5)CC[C@@]4(C)[C@]3(C)CC[C@@H]12 [TX63914] | 0.4 |
| COC(=O)[C@]12CCC(C)(C)C[C@H]1[C@H]1C(=O)C=C3[C@@]4(C)C=C(C#N)C(=O)C[C@@H]4CC[C@@]3(C)[C@]1(C)CC2 [TX63614] | 11.7 |

| SMILES | IC50 [nM] |
| --- | --- |
| CCNC(=O)[C@]12CCC(C)(C)C[C@H]1[C@H]1C(=O)C=C3[C@@]4(C)C=C(C#N)C(=O)[C@@H](C)[C@@H]4CC[C@@]3(C)[C@]1(C)CC2 [TX63521] | 1.1 |
| Cc1cn(C(=O)[C@]23CCC(C)(C)C[C@H]2[C@H]2C(=O)C=C4[C@@]5(C)C=C(C#N)C(=O)[C@@H](C)[C@@H]5CC[C@@]4(C)[C@]2(C)CC3)c(C)n1 [TX63822] | 0.7 |
| C[C@@H]1C(=O)C(C#N)=C[C@]2(C)C3=CC(=O)[C@@H]4[C@@H]5CC(C)(C)CC[C@]5(CCC(=O)N5CCOCC5)CC[C@@]4(C)[C@]3(C)CC[C@@H]12 [TX63888] | 0.3 |
| CC(=O)OC[C@]12CCC(C)(C)C[C@H]1[C@H]1C(=O)C[C@@H]3[C@@]4(C)C=C(C#N)C(=O)[C@@H](C)[C@@H]4CC[C@@]3(C)[C@]1(C)CC2 [TX63840] | 2.9 |
| COC(=O)[C@]12CCC(C)(C)C[C@H]1[C@H]1C(=O)C=C3[C@@]4(C)C=C(C(N)=O)C(=O)[C@@H](C)[C@@H]4CC[C@@]3(C)[C@]1(C)CC2 [TX63831] | 21 |
| C[C@@H]1C(=O)C(C#N)=C[C@]2(C)C3=CC(=O)[C@@H]4[C@@H]5CC(C)(C)CC[C@]5(NC=O)CC[C@@]4(C)[C@]3(C)CC[C@@H]12 [TX63681] | 1.6 |
| C[C@@H]1C(=O)C(C#N)=C[C@]2(C)C3=CC(=O)[C@@H]4[C@@H]5CC(C)(C)CC[C@]5(NC(N)=O)CC[C@@]4(C)[C@]3(C)CC[C@@H]12 [TX63862] | 28 |
| CNC(=O)[C@]12CCC(C)(C)C[C@H]1[C@H]1C(=O)C=C3[C@@]4(C)C=C(C#N)C(=O)[C@@H](C)[C@@H]4CC[C@@]3(C)[C@]1(C)CC2 [TX63824] | 1 |
| C[C@@H]1C(=O)C(C#N)=C[C@]2(C)[C@H]3CC(=O)[C@@H]4[C@@H]5CC(C)(C)CC[C@]5(C#N)CC[C@@]4(C)[C@]3(C)CC[C@@H]12 [TX63817] | 2.6 |
| C[C@@H]1C(=O)C(C#N)=C[C@]2(C)[C@H]3CC(=O)[C@@H]4[C@@H]5CC(C)(C)CC[C@]5(C(=O)N5CCOCC5)CC[C@@]4(C)[C@]3(C)CC[C@@H]12 [TX63812] | 10.1 |
| C/C(=N\O)NC(=O)[C@]12CCC(C)(C)C[C@H]1[C@H]1C(=O)C=C3[C@@]4(C)C=C(C#N)C(=O)[C@@H](C)[C@@H]4CC[C@@]3(C)[C@]1(C)CC2 [TX63786] | 2.2 |
| C[C@@H]1C(=O)C(C#N)=C[C@]2(C)[C@H]3CC(=O)[C@@H]4[C@@H]5CC(C)(C)CC[C@]5(C(N)=O)CC[C@@]4(C)[C@]3(C)CC[C@@H]12 [TX63816] | 10.2 |
| C[C@@H]1C(=O)C(C#N)=C[C@]2(C)C3=CC(=O)[C@@H]4[C@@H]5CC(C)(C)CC[C@]5(CCC(=O)O)CC[C@@]4(C)[C@]3(C)CC[C@@H]12 [TX63891] | 1.3 |
| C[C@@H]1C(=O)C(C#N)=C[C@]2(C)C3=CC(=O)[C@@H]4[C@@H]5CC(C)(C)CC[C@]5(COC(=O)CNC(=O)OC(C)(C)C)CC[C@@]4(C)[C@]3(C)CC[C@@H]12 [TX63716] | 3.2 |
| COC(=O)[C@]12CCC(C)(C)C[C@H]1[C@H]1C(=O)C=C3[C@@]4(C)C=C(C#N)C(=O)C(C)=C4CC[C@@]3(C)[C@]1(C)CC2 [TX63448] | 75 |
| C[C@@H]1C(=O)C(C#N)=C[C@]2(C)C3=CC(=O)[C@@H]4[C@@H]5CC(C)(C)CC[C@]5(NC(=O)c5ccccc5)CC[C@@]4(C)[C@]3(C)CC[C@@H]12 [TX63798] | 1.5 |
| C[C@@H]1C(=O)C(C#N)=C[C@]2(C)C3=CC(=O)[C@@H]4[C@@H]5CC(C)(C)CC[C@]5(OC(N)=O)CC[C@@]4(C)[C@]3(C)CC[C@@H]12 [TX63929] | 0.5 |
| C[C@@H]1C(=O)C(C#N)=C[C@]2(C)C3=C[C@@H](O)[C@@H]4[C@@H]5CC(C)(C)CC[C@]5(CO)CC[C@@]4(C)[C@]3(C)CC[C@@H]12 [TX63923] | 2.5 |
| CONC(=O)[C@]12CCC(C)(C)C[C@H]1[C@H]1C(=O)C[C@@H]3[C@@]4(C)C=C(C#N)C(=O)[C@@H](C)[C@@H]4CC[C@@]3(C)[C@]1(C)CC2 [TX63815] | 9.6 |

test system: NQO1-ARE; assay: NQO1-ARE luciferase reporter assay in HuH7 cells (Nrf2 transcriptional activity); type: cell-based; conditions: Homo sapiens, Huh-7, 62.5 nM compound, 18 h, Firefly normalized to Renilla, over DMSO vehicle control
Source text: NQO1-ARE Luciferase Reporter Assay.
This assay allows for quantitative assessment of the endogenous activity of the Nrf2 transcription factor in cultured mammalian cells. Expression of Firefly luciferase from NQO1-ARE luciferase reporter plasmid is controlled by binding of Nrf2 to a specific enhancer sequence corresponding to the antioxidant response element (ARE) that was identified in the promoter region of the human NADPH:quinone oxidoreductase 1 (NQO1) gene (Xie et al., 1995). The plasmid was constructed by inserting a sequence:
encompassing the human NQO1-ARE into the pLuc-MCS vector using HindIII/XhoI cloning sites (GenScript Corp., Piscataway, N.J.). The assay is performed in HuH7 cells maintained in DMEM (Invitrogen) supplemented with 10% FBS and 100 U/ml (each) of penicillin and streptomycin. For the assay, cells are plated in 96-well plates at 17,000 cells per well. Twenty four hours later, the cells are co-transfected with 50 ng each of NQO1-ARE reporter plasmid and pRL-TK plasmid using Lipofectamine 2000 transfection reagent (Invitrogen). pRL-TK plasmid constitutively expresses Renilla luciferase and is used as an internal control for normalization of transfection levels. Thirty hours after transfection, the cells are treated with compounds (at concentrations ranging from 0 to 1 μM) for eighteen hours. Firefly and Renilla luciferase activity is assayed by Dual-Glo Luciferase Assay (Promega Corp., Madison, Wis.), the luminescence signal is measured on an L-Max II luminometer (Molecular Devices). Firefly luciferase activity is normalized to the Renilla activity, and fold induction over a vehicle control (DMSO) of normalized Firefly activity is calculated. The fold induction at 62.5 nM concentration is used for comparing relative potencies of compounds to induce Nrf2 transcriptional activity. See Xie et al., 1995, which is incorporated herein by reference.

| SMILES | fold induction at 0.0625 µM |
| --- | --- |
| COC(=O)[C@]12CCC(C)(C)C[C@H]1[C@H]1C(=O)C[C@@H]3[C@@]4(C)C=C(C#N)C(=O)[C@@H](C)[C@@H]4CC[C@@]3(C)[C@]1(C)CC2 [TX63749] | 2.3 |
| C[C@@H]1C(=O)C(C#N)=C[C@]2(C)C3=CC(=O)[C@@H]4[C@@H]5CC(C)(C)CC[C@]5(C(=O)n5ccnc5)CC[C@@]4(C)[C@]3(C)CC[C@@H]12 [TX63522] | 4.1 |
| C[C@@H]1C(=O)C(C#N)=C[C@]2(C)C3=CC(=O)[C@@H]4[C@@H]5CC(C)(C)CC[C@]5(C(=O)NCC(F)(F)F)CC[C@@]4(C)[C@]3(C)CC[C@@H]12 [TX63523] | 5.6 |
| Cc1nnc([C@]23CCC(C)(C)C[C@H]2[C@H]2C(=O)C=C4[C@@]5(C)C=C(C#N)C(=O)[C@@H](C)[C@@H]5CC[C@@]4(C)[C@]2(C)CC3)o1 [TX63616] | 4.4 |
